Measured values taken from article PMC11823594, “Durlobactam in combination with β-lactams to combat Mycobacterium abscessus” (Antimicrobial Agents and Chemotherapy, 2024).
≈ marks a conversion by molar mass, not a printed value. Entries after “also recorded” stand apart in the source; their conditions may differ.

Assays:
[1] = Predicted average unbound steady-state plasma concentration (fCss,avg) at clinically relevant doses; parameters: species or system human; settings: median unbound average steady-state plasma concentration, continuous infusion; daily dose DUR 4,000, AVI 1,500, IPM 4,000, CFT 1,800, AMX 1,500, SULO 1,000, CXM 1,500, SUL 4,000, TBP 1,800 mg
PBP B [2] = target: T1, PBP B (Mycobacterium abscessus, UniProt B1MP31); assay: Mass spectrometry of covalent adduct formation; assay type: binding; settings: protein:drug 1:20, 2 h; mass accuracy ±5 Da; (−) = no change
Protocol: Truncated sequences of LDT1-5, DDC, PBP B, and PBP-lipo (Δ1–41) were generated by Celtek Biosciences and cloned into the pET28(a) + vector with a tobacco etch virus (TEV) protease cleavage site before the start codon. Clones were transformed into Escherichia coli BL21 (DE3) and grown to an OD600 of 0.6–0.8. […] Cell pellets were collected and stored at −20°C overnight, then resuspended in a buffer containing 50 mM Tris (pH 8.0), 400 mM sodium chloride, and 1 mM Tris (2-carboxyethyl) phosphine hydrochloride (TCEP), followed by sonication and centrifugation. The supernatant was purified using a His Prep FF 16/10 column (GE Healthcare) and eluted with 500 mM imidazole. Eluted protein was dialyzed overnight at 4°C in a buffer with 50 mM Tris (pH 8.0), 150 mM sodium chloride, and 0.5 mM TCEP in the presence of His-tagged TEV protease. To remove the His tag, the mixture was passed over the His Prep FF 16/10 column again.
(§1) The purified proteins listed above were incubated at room temperature with β-lactams or BLIs at a molar ratio of 1:20 for 2 h. The reactions were then quenched with acetonitrile and diluted to 1 mL with 0.1% formic acid in water. Samples were analyzed using a quadrupole time-of-flight (Q-TOF) Waters Synapt-G2-Si electrospray ionization mass spectrometer (ESI-MS) and a Waters Acquity H class ultra-performance liquid chromatography (UPLC) system, equipped with a BEH C18 1.7 µm column (2.1 × 50 mm). The MS was tuned with the following settings: capillary voltage set at 3 kV, sampling cone at 35 V, source offset at 35, source temperature of 100°C, desolvation temperature of 500°C, cone gas flow rate at 100 L/h, desolvation gas flow rate at 800 L/h, and nebulizer set at 6.0. The mobile phases consisted of 0.1% formic acid in water and 0.1% formic acid in 100% acetonitrile, with gradient elution from 10% to 90% of […] over 11 min. The system’s mass accuracy was ±5 Da.

Mab ATCC 19977 = assay: Static drug-concentration time-kill (SCTK) assay with CART analysis; assay type: cell-based, Mycobacterium abscessus; settings: clinically achievable concentrations, over 10 days; AVI 4 mg/L; DUR 12 mg/L + SUL 7 mg/L
[3] = system: Mycobacterium abscessus ATCC 19977 strain; assay: Morphological changes by flow cytometry and confocal microscopy; assay type: cell-based; settings: clinically relevant unbound concentrations (fCss,ave), 24 h
Protocol: Flow cytometry was employed to evaluate morphological changes in individual bacterial cells following PBP-lipo inactivation after 24 h of β-lactam treatment. The bacterial cells were stained using the BacLight kit L7012 (Thermo Fisher Scientific, Waltham, MA), containing SYTO 9 and propidium iodide (PI). Analysis was performed using a CytoFLEX flow cytometer (Beckman Coulter, CA), with data processed using CytExpert software.
Bacterial morphological changes resulting from PBP-lipo inactivation were investigated using an ImageXpress Micro Confocal Microscope (Molecular Devices, CA). The staining procedures applied to the samples mirrored those used for flow cytometry. Stained bacterial cells were placed in optically clear flat-bottom 96-well plates, and observations were conducted at 60× magnification. Cell length measurements were obtained through automated image analysis using MetaXpress 6 software.

Mab ATCC 19977 strain = assay: MIC testing (CLSI, Middlebrook 7H9 broth); assay type: cell-based, Mycobacterium abscessus; settings: for MIC: Mycobacteroides abscessus, ATCC19977, Mab ATCC 19977, no BLI added, 30°C, 48 h, read-out: MIC, alone; for MIC, + DUR + SUL (1:1): durlobactam, sulbactam and test β-lactam all at the same concentration; for MIC, + AVI (4 mg/L): fixed avibactam 4 mg/L; for MIC, + DUR + SUL (1 mg/L): fixed durlobactam 1 mg/L + sulbactam 1 mg/L
PBP B [4] = target: T1, PBP B; assay: Differential scanning fluorimetry thermal shift assay; assay type: binding; settings: 2 h; read-out: ΔTm PBPB (Tm = 31.6°C)
Protocol: (§2) Each purified protein (2–4 µM) was incubated with or without β-lactams or BLIs at a molar ratio of 1:50 at room temperature for 2 h. Following incubation, SYPRO Orange dye (10× concentration; Fisher Scientific) was added. The samples were then brought to a final volume of 30 µL with PBS buffer and subjected to thermal cycling in a qPCR machine (Bio-Rad), with the temperature increasing from 25°C to 95°C at a rate of 1°C/min. Fluorescence changes were monitored with an excitation wavelength of 492 nm. The experiments were conducted at least in duplicate, and the melting temperature (Tm) was determined for each sample. The Tm values were then compared to those of the protein in the absence of β-lactams or BLIs to ascertain the change in melting temperature (ΔTm).

DDC = DDC (Mycobacteroides abscessus, UniProt B1MDJ1); assay: as above; assay type: binding; settings: 2 h; read-out: ΔTm DDC (Tm = 35.5°C)
Protocol: as §2

LDT4 = LDT4 (Mycobacterium abscessus, UniProt B1MKW1); assay: Mass spectrometry of covalent adduct formation; assay type: binding; settings: protein:drug 1:20, 2 h; mass accuracy ±5 Da; (−) = no change
Protocol: Truncated sequences of LDT1-5, DDC, PBP B, and PBP-lipo (Δ1–41) were generated by Celtek Biosciences and cloned into the pET28(a) + vector with a tobacco etch virus (TEV) protease cleavage site before the start codon. Clones were transformed into Escherichia coli BL21 (DE3) and grown to an OD600 of 0.6–0.8. Protein expression was induced with 0.25 mM isopropyl β-d-1-thiogalactopyranoside (IPTG) and incubated for 18 h at 18°C. Cell pellets were collected and stored at −20°C overnight, then resuspended in a buffer containing 50 mM Tris (pH 8.0), 400 mM sodium chloride, and 1 mM Tris (2-carboxyethyl) phosphine hydrochloride (TCEP), followed by sonication and centrifugation. The supernatant was purified using a His Prep FF 16/10 column (GE Healthcare) and eluted with 500 mM imidazole. Eluted protein was dialyzed overnight at 4°C in a buffer with 50 mM Tris (pH 8.0), 150 mM sodium chloride, and 0.5 mM TCEP in the presence of His-tagged TEV protease. To remove the His tag, the mixture was passed over the His Prep FF 16/10 column again.
as §1

Sequence of DDC (B1MDJ1 entry or part of it): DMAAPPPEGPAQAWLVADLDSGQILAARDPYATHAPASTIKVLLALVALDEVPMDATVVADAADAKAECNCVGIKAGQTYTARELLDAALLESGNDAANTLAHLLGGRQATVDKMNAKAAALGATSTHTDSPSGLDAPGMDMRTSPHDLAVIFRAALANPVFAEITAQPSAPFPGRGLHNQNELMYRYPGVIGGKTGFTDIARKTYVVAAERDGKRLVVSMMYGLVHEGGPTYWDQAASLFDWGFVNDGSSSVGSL
T1 sequence (B1MP31 entry or part of it): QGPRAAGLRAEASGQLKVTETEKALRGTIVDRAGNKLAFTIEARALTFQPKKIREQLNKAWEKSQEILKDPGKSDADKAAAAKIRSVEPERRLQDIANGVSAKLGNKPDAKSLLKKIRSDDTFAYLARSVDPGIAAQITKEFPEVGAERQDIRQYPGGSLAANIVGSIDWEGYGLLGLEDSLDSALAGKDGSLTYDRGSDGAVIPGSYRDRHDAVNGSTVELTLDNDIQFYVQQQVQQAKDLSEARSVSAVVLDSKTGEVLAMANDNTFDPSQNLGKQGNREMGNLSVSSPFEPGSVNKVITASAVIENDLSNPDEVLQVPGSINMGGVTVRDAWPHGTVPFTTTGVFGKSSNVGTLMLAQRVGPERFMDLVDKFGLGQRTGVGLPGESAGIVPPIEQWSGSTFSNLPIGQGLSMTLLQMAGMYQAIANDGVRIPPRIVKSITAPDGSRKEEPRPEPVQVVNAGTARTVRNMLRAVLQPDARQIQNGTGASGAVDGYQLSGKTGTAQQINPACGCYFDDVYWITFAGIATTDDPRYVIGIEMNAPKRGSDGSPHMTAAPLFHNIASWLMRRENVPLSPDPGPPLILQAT
Sequence of LDT4 (B1MKW1 entry or part of it): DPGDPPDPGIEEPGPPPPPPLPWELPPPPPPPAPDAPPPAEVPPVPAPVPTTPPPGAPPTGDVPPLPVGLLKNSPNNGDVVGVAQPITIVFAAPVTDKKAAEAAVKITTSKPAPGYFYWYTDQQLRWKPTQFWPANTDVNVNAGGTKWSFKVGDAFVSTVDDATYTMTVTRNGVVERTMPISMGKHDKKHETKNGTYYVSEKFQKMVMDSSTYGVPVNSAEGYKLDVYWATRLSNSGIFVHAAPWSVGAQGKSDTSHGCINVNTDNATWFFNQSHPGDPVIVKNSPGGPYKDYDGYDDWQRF

| Structure (SMILES) | fCss,avg [1] [mg/L] | Observed MW (+ change in mw), PBP B (62,915) (PBP B [2]) | Bacterial killing (log10 reduction) in time-kill (Mab ATCC 19977) | Morphological change of Mab cells [3] | MIC (Mab ATCC 19977 strain) [µg/mL] | MIC, + DUR + SUL (1:1) (Mab ATCC 19977 strain) [µg/mL] | MIC, + AVI (4 mg/L) (Mab ATCC 19977 strain) [µg/mL] | MIC, + DUR + SUL (1 mg/L) (Mab ATCC 19977 strain) [µg/mL] | ΔTm (PBP B [4]) [°C] | ΔTm (DDC) [°C] | Observed MW (+ change in mw), LDT4 (32,567) (LDT4) |
| --- | --- | --- | --- | --- | --- | --- | --- | --- | --- | --- | --- |
| CC1(C)S[C@@H]2[C@H](NC(=O)[C@H](N)c3ccc(O)cc3)C(=O)N2[C@H]1C(=O)O [Amoxicillin, amoxicillin] | 6 | 63,280 (+365) Da | no killing effect | does not induce any morphological changes | 128 (≈ 350 µM) | 1 | 32 | 1 | – | – | – |
| NC(=O)[C@@H]1CC[C@@H]2CN1C(=O)N2OS(=O)(=O)O [Avibactam, avibactam] | 5 | 63,180 (+265) Da | no effect on bacterial growth inhibition or killing; also recorded: no effect | did not induce noticeable morphological changes | > 128 | – | – | – | -0.2 | 4.2 | – |
| CO/N=C(\C(=O)N[C@@H]1C(=O)N2C(C(=O)O)=C(COC(N)=O)CS[C@H]12)c1ccco1 [Cefuroxime, cefuroxime] | 12 | 63,279 (+364) Da | – | did not induce noticeable morphological changes | 4 (≈ 9.43 µM) | 1 | 4 | 2 | – | – | 32,567 (−) Da |
| CC1=C[C@@H]2CN(C(=O)N2OS(=O)(=O)O)[C@@H]1C(N)=O [Durlobactam, durlobactam] | 16 | 63192 (+277) Da | ~ 2 log10 CFU/mL | filamentous shapes with an elongated cell length | – | – | – | – | -0.4 | 0.4 | 32,841 (+276) Da |
| C[C@@H](O)[C@H]1C(=O)N2C(C(=O)O)=C(SCCN=CN)C[C@H]12 [Imipenem, imipenem] | 12 | 63,215 (+300) Da | – | filamentous shapes with an elongated cell length | 8 (≈ 26.7 µM) | 2 | 4 | 4 | – | – | – |
| C[C@@H](O)[C@H]1C(=O)N2C(C(=O)O)=C(S[C@H]3CC[S@@+]([O-])C3)S[C@H]12 [Sulopenem, sulopenem] | 2 | 63,264 (+349) Da | – | filamentous shapes with an elongated cell length | 1 (≈ 2.86 µM) | 0.25 | 0.5 | 1 | 1 | 10.4 | 32,652 (+86) Da |
| C[C@@H](O)[C@H]1C(=O)N2C(C(=O)O)=C(SC3CN(C4=NCCS4)C3)[C@H](C)[C@H]12 [Tebipenem, tebipenem] | 1.7 | – | – | – | 8 (≈ 20.9 µM) | 1 | 2 | 1 | – | – | 32,951 (+384) Da |
